Experiments:
Format in all cases: cell-based
[1] = test system: biofilm-forming microbe isolated from cooling water taken from a water cooling tower; assay: Biofilm inhibition test, quinone-based compound and organic solvent (OD570); conditions: for OD570: alone or added as test solution in Diacetone alcohol, no addition gave 2.15
Description: A biofilm-forming microbe (microbe providing a OD570 value of 0.3 or more in the test for determining the amount of biofilm in the following section 4-3) isolated from cooling water taken from a water cooling tower was cultured in R2A culture medium at 30° C. for 16 hours while shaking. The turbidity (OD600) of the resultant culture solution was measured. The culture solution was diluted with R2A culture medium to prepare a suspension of 10^3 cfu/mL.
The suspension of a test microbe prepared in the above section 4-1) was added in individual wells of a 96 well microplate in an amount of 150 μL. Thereafter, the test solution prepared in the above section 2) was add and culture was initiated.
The 96 well microplate was subjected to stationary culture performed at 30° C. for 48 hours. The culture solution was removed and the resultant microplate was washed with water. Subsequently, each well was stained with 0.1% crystal violet and 200 μL of ethanol was added. The absorbance (OD570) was measured to obtain the amount of biofilm (BF) formed.

[2] = test system: Pseudomonas PAO1 strain (ATCC 15692); assay: Growth of test microbe (turbidity OD600), 96-well microplate culture
Description: (§1) Pseudomonas PAO1 strain (ATCC 15692) was subjected to stationary culture performed in LB culture medium (Lysogeny Broth; manufactured by Becton Dickinson) at 37° C. for 24 hours. The turbidity (OD600) of the culture solution was measured. The culture solution was diluted with Mueller Hinton Broth (BBL made) to prepare a suspension (15 mL) having a turbidity (OD600) of 1/10^6.
To each of the wells of a 96-well microplate (351172; manufactured by Japan Becton Dickinson), 6 μL of DMSO (Tokyo Chemical Industry Co. Ltd) and an ethanol solution (1 μL, 3 μL or 5 μL) of a test compound were added. After that, the microplate was allowed to stand still at room temperature for 5 hours to evaporate ethanol. The suspension of Pseudomonas microbe prepared in the above step 1) was added in an amount of 145 μL per well and culture was initiated. As the test compound, 2-methylhydroquinone (Sigma Aldrich) and p-toluquinone (Tokyo Kasei) were used. As a reference compound, sodium hypochlorite (manufactured by Wako Pure Chemical Industries Ltd.) was used. As a control, an ethanol solvent (EtOH control) alone was used. The concentration of the test compound in the ethanol solution is 1,000 ppm or 10,000 ppm and the final concentration of the test compound in the culture solution was about from 7 to 333 ppm.
(§2) After the 96-well microplate was subjected to stationary culture performed at 30° C. for 24 hours, turbidity (OD600) was measured to check growth. Subsequently, individual wells were stained with 0.1% crystal violet and thoroughly washed twice with physiological saline. To each well, 200 μL of ethanol was added and the absorbance (OD570) was measured to obtain the amount of the biofilm formed.
Compounds listed in Table 3 were each added to a test microbe and culture was conducted by the same procedure as in Test Example 1 and the amount of growth (OD600) and the amount of biofilm formed (OD570) were measured. For compounds a, b, c, f, h, i, J and k, 20 mM ethanol solutions were prepared; whereas for compounds d, e, g, 5 mM ethanol solutions were prepared. The solutions were each added to a 96-well microplate in an amount of 1 to 8 μL and evaluation was made. The final concentrations of the individual compounds are described in Table 3.
(§3) Growth inhibition rates relative to the control (ethanol alone) were calculated based on OD600 values measured and in accordance with the following expression. In addition, biofilm (BF) formation inhibition rates relative to the control (ethanol alone) were calculated based on OD570 values and in accordance with the following expression:
Growth inhibition (%)=(1−(compound addition group OD600/control group OD600))×100
(§4) As a control, an ethanol solvent alone was used (EtOH control). The concentrations of test compounds in the ethanol solution were as follows: test compound 1: 20 mM, test compounds 2 to 7: 100 mM. To each of the wells of a 96-well microplate (351172; manufactured by Japan Becton Dickinson), 6 μL of DMSO (Tokyo Kasei) and an ethanol solution of each test compound (1 to 8 μL) were added and then the microplates were allowed to stand still at room temperature for 5 hours to evaporate ethanol. A suspension solution of a Pseudomonas microbe prepared in the same procedure as in Test Example 1, 1) was added in an amount of 145 μL per well and culture was initiated.
as §2, with “culture” for “culture performed”, “formed. The growth inhibition rate and biofilm (BF) formation inhibition rate were calculated based on OD600 and OD570 values measured and in accordance with the expressions used in Test Example 2.” for “formed.”

[3] = test system: Pseudomonas PAO1 strain (ATCC 15692); assay: Amount of biofilm formed (crystal violet, OD570), 96-well microplate culture
Description: as §1, with “1/10^6. […]” for “1/10^6.”
as §3
BF inhibition (%)={1−(compound addition group OD570/control group OD570)}×100
as §4
as §2, with “culture” for “culture performed”, “formed. The growth inhibition rate and biofilm (BF) formation inhibition rate were calculated based on OD600 and OD570 values measured and in accordance with the expressions used in Test Example 2.” for “formed.”

[4] = Pseudomonas, read-out: Growth inhibition (%)
[5] = Pseudomonas, read-out: BF inhibition (%)

## CCCCCCc1ccc(O)cc1O [4-Hexylresorcinol]
[1]; 4-Hexylresorcinol 10 ppm
  OD570: 1.49
[1]; 4-Hexylresorcinol 20 ppm
  OD570: 0.10

## Cc1cc(O)c(C)c(O)c1 [Compound 5, 2,5-Dimethylresorcinol]
[2]; [4]
  inhibition at 92 ppm: < 0%
  inhibition at 184 ppm: < 0%
  inhibition at 368 ppm: < 0%
  inhibition at 552 ppm: 9.3%
  inhibition at 644 ppm: 14%
  inhibition at 736 ppm: 11.1%
[3]; [5]
  inhibition at 92 ppm: < 0%
  inhibition at 184 ppm: 0.4%
  inhibition at 368 ppm: < 0%
  inhibition at 552 ppm: 10.4%
  inhibition at 644 ppm: 20.4%
  inhibition at 736 ppm: 55%

## OCCOCCO [diethylene glycol]
[1]; from the results in Table 13, among the organic solvents tested
  decrease of BF formation inhibitory effect of the quinone-based compound by the organic solvent (in words): lowest

## OCl [Sodium hypochlorite, sodium hypochlorite, reference compound]
[2]; Test Example 1, 7 to 333 ppm
  microbial growth (in words): inhibited
[2]; final concentration 7 ppm, EtOH control 0.5913
  Growth OD600: 0.5938
[2]; final concentration 20 ppm, EtOH control 0.6346
  Growth OD600: 0.4966
[2]; final concentration 33 ppm, EtOH control 0.668
  Growth OD600: 0.4445
[2]; final concentration 67 ppm, EtOH control 0.628
  Growth OD600: 0.4585
[2]; final concentration 200 ppm, EtOH control 0.6045
  Growth OD600: 0.3016
[2]; final concentration 333 ppm, EtOH control 0.6088
  Growth OD600: 0.2758
[3]; Test Example 1, 7 to 333 ppm
  biofilm formation (in words): inhibited
[3]; final concentration 7 ppm, EtOH control 0.9163
  The amount of the biofilm formed OD570: 0.9918
[3]; final concentration 20 ppm, EtOH control 0.9564
  The amount of the biofilm formed OD570: 0.9042
[3]; final concentration 33 ppm, EtOH control 0.8974
  The amount of the biofilm formed OD570: 0.7879
[3]; final concentration 67 ppm, EtOH control 0.8853
  The amount of the biofilm formed OD570: 0.7277
[3]; final concentration 200 ppm, EtOH control 0.9248
  The amount of the biofilm formed OD570: 0.7579
[3]; final concentration 333 ppm, EtOH control 0.9562
  The amount of the biofilm formed OD570: 0.4967

Source: patent publication US20190124918A1, “BIOFILM FORMATION INHIBITOR AND BIOFILM FORMATION INHIBITING COMPOSITION” (KAO CORPORATION, priority 2016, published 2019)
